How the values were obtained:
[1] = test system: Jurkat line (ACD4_38) expressing a C-peptide specific TCR; test: IL-2 secretion (ELISA) by TCR-transduced Jurkat line, peptide titration; type: cell-based, human; conditions: clone ACD4_38, two independent experiments
Protocol: (§1) TCR-transduced T cells were cultured, in triplicate, in cRPMI/5% FBS at 2 × 10^4/well with an equal number of EBV-transformed B cells (see Supplementary Table 3) and different peptides (Purar Chemicals). See Supplementary Table 6 for a full list of peptides used in this study. The positive control was PMA (10 ng/mL) and ionomycin (500 ng/mL) in culture media. Negative controls had all cells, but no peptide. After overnight culture supernatant was collected for IL-2 ELISA.
(§2) ELISAs were performed using the ELISA MAX™ Deluxe set Human IL-2 (BioLegend) as per the manufacturer's instructions. Briefly, 96-well ELISA plates (Greiner Bio-One) were coated with 100μL/well of purified anti-human IL-2 antibody diluted 1:200. […] The reaction was stopped by the addition of 2 M H2SO4 solution (BioLegend) and optical density (OD) measured using a FLUOstar Omega microplate reader (BMG LabTech). The amount of IL-2 secreted was determined using a linear regression of all OD values (minus the background) of the standard curve. […]
To determine if C-peptide specific TCRs were more sensitive to Q to E variants of C-peptide we tested graded concentrations of wild type C-peptide and five deamidated variants. […] To compare the relative potency of the Q to E substituted peptides the responses were calculated as fold change relative to full-length, WT C-peptide (Fig. 2D). […]

[2] = test system: 18 Jurkat T-cell lines expressing C-peptide specific TCRs; test: IL-2 secretion (ELISA) by panel of 18 TCR-transduced Jurkat lines, peptide titration; type: cell-based, human; conditions: Mann-Whitney test, Fig. 2H
Protocol: as §1
as §2, with “instructions.” for “instructions. Briefly, 96-well ELISA plates (Greiner Bio-One) were coated with 100μL/well of purified anti-human IL-2 antibody diluted 1:200.”
Fig. 2 C-peptide specific TCR responses to deamidated C-peptide variants (A) Each peptide is referred to by the position, within C-peptide of the glutamine (Q), in bold, to glutamic acid (E), in red text, substitutions. […] (C) The EC50 for each peptide was calculated the and the EC50 from two independent experiments are shown. […] Statistical significance was determined using the Mann-Whitney test (ns, not significant, […], p < 0.05, **p < 0.01, ***p < 0.001). […]

## EAEDLEVGEVELGGGPGAGSLEPLALEGSLE [QallE, C-peptide with all four glutamines substituted for glutamic acid]
[1]
  Stimulation compared with WT C-peptide and the other single substituted peptides (EC50, IL-2): dramatically less stimulatory

## EAEDLQVGEVELGGGPGAGSLQPLALEGSLQ [Q9E, C-peptide variant with glutamine 9 substituted for glutamic acid]
[1]
  Stimulation compared with WT C-peptide and the other single substituted peptides (EC50, IL-2): dramatically less stimulatory

## EAEDLQVGQVELGGGPGAGSLQPLALEGSLE [Q31E, C-peptide variant with glutamine 31 substituted for glutamic acid]
[2]
  Difference in fold change in EC50 (relative to full-length C-peptide) between clones with overlapping and non-overlapping epitopes: no difference
